What was measured:
Peroxiredoxin-1 = target: T1, Peroxiredoxin-1 (Homo sapiens, UniProt Q06830); assay: Binding affinity to CM5 sensor chip-immobilized recombinant PRDX1 (unknown origin) assessed as dissociation constant by SPR analysis
T1 sequence (Q06830 whole entry): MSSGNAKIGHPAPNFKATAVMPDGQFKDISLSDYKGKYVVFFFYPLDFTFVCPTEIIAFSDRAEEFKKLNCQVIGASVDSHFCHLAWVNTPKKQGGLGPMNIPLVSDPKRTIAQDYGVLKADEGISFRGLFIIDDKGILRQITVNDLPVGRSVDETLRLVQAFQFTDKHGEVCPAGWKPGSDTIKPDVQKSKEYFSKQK

Peroxiredoxin-2 = target: T2, Peroxiredoxin-2 (Homo sapiens, UniProt P32119); assay: Inhibition of recombinant PRDX2 (unknown origin) using H2O2 as substrate preincubated for 0.5 hrs followed by substrate addition by TRX-TrxR-NADPH coupling assay
T2 sequence (P32119 whole entry): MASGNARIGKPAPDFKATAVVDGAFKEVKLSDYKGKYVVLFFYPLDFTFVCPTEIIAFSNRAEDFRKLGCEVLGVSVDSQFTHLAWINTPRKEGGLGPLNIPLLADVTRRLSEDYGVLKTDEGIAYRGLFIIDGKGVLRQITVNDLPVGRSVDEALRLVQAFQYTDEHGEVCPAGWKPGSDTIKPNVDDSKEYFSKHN

Question: How did the Kd (Peroxiredoxin-1) turn out when `COC(=O)C1(NC(=O)N[C@]2(C)CC[C@]3(C)CC[C@]4(C)C5=CC=C6C(=CC(=O)C(O)=C6C)[C@]5(C)CC[C@@]4(C)[C@@H]3C2)CCC1` was run?
Answer: 370 nM

Question: And the IC50 (Peroxiredoxin-2)?
Answer: > 50000 nM

— ChEMBL document CHEMBL5543168, “Discovery of Urea Derivatives of Celastrol as Selective Peroxiredoxin 1 Inhibitors against Colorectal Cancer Cells” (J Med Chem, 2024)
